# Laboratory results reported in publication PMC4965013, “Open Source Drug Discovery with the Malaria Box Compound Collection for Neglected Diseases and Beyond” (PLoS Pathogens, 2016).
# Read-outs that look alike come from different tables or passages of the source.
# Legend:
# P. falciparum = test: EC50 listed in S2 Table Metabolomics (used to set the concentration tested); assay type: cell-based; conditions: Plasmodium falciparum, read-out: EC50_nM
# [1] = tested on: P. falciparum 3D7 trophozoites; test: Metabolomic fingerprint profiling LC-MS; assay type: cell-based, Plasmodium falciparum; set-up: UDP-D-glucose / ADP-D-glucose: unit not given here; conditions: for Acetyllysine / N-acetyl-L-ornithine / N-carbamoyl-L-aspartate / NADPH / dAMP / dCMP / dTDP / dTMP / dTTP / dihydroorotate / orotate / DLH / DLS/SDL/SID / PD / PEE / PVNF / 3-phosphoglycerate / ADP-D-glucose / ATP / CDP / D-sedoheptulose-1/7-phosphate / FAD / GMP / NAD+ / NADP+ / Octoluse Bisphosphate / Pyroglutamic acid / UDP-D-glucose / UDP-D-glucuronate / UDP-N-acetyl-glucosamine / UDP / UMP / UTP / a-ketoglutarate / citrate/isocitrate / cytidine / dATP / dGMP/AMP / fumarate / glucose-1/6-phosphate / glycerate / guanine / guanosine / hypoxanthine / indole / inosine / nicotinate / ornithine / phosphoenolpyruvate / pyruvate / ribose-phosphate / sarcosine/alanine / sn-glycerol-3-phosphate / succinate/methylmalonic acid / uridine / xanthosine: S2 Table Metabolomics; for Acetyllysine: metabolite Acetyllysine; for N-acetyl-L-ornithine: metabolite N-acetyl-L-ornithine; for N-carbamoyl-L-aspartate: metabolite N-carbamoyl-L-aspartate; for NADPH: metabolite NADPH; for dAMP: metabolite dAMP; for dCMP: metabolite dCMP; for dTDP: metabolite dTDP; for dTMP: metabolite dTMP; for dTTP: metabolite dTTP; for dihydroorotate: metabolite dihydroorotate; for orotate: metabolite orotate; for DLH: peptide DLH; for DLS/SDL/SID: peptide DLS/SDL/SID; for PD: peptide PD; for PEE: peptide PEE; for PVNF: peptide PVNF; for 3-phosphoglycerate: metabolite 3-phosphoglycerate; for ADP-D-glucose: metabolite ADP-D-glucose; for ATP: metabolite ATP; for CDP: metabolite CDP; for CDP / D-sedoheptulose-1/7-phosphate / GMP / Octoluse Bisphosphate / UDP / UMP / UTP / citrate/isocitrate / dGMP/AMP / fumarate / glucose-1/6-phosphate / glycerate / guanine / guanosine / inosine / pyruvate / sarcosine/alanine / succinate/methylmalonic acid / uridine / xanthosine: change in metabolite level after compound treatment; for D-sedoheptulose-1/7-phosphate: metabolite D-sedoheptulose-1/7-phosphate; for FAD: metabolite FAD; for GMP: metabolite GMP; for NAD+: metabolite NAD+; for NADP+: metabolite NADP+; for Octoluse Bisphosphate: metabolite Octoluse Bisphosphate; for Pyroglutamic acid: metabolite Pyroglutamic acid; for UDP-D-glucose: metabolite UDP-D-glucose; for UDP-D-glucuronate: metabolite UDP-D-glucuronate; for UDP-N-acetyl-glucosamine: metabolite UDP-N-acetyl-glucosamine; for UDP: metabolite UDP; for UMP: metabolite UMP; for UTP: metabolite UTP; for a-ketoglutarate: metabolite a-ketoglutarate; for citrate/isocitrate: metabolite citrate/isocitrate; for cytidine: metabolite cytidine; for dATP: metabolite dATP; for dGMP/AMP: metabolite dGMP/AMP; for fumarate: metabolite fumarate; for glucose-1/6-phosphate: metabolite glucose-1/6-phosphate; for glycerate: metabolite glycerate; for guanine: metabolite guanine; for guanosine: metabolite guanosine; for hypoxanthine: metabolite hypoxanthine; for indole: metabolite indole; for inosine: metabolite inosine; for 2_3-Diphosphoglyceric acid / 4-phosphopantothenate / 6-phospho-D-gluconate / FMN / IMP / Pyrophosphate / Sedoheptoluse bisphosphate / cyclic-AMP / glutathione disulfide / lactate / myo-inositol: metabolite level change after treatment; for nicotinate: metabolite nicotinate; for ornithine: metabolite ornithine; for phosphoenolpyruvate: metabolite phosphoenolpyruvate; for pyruvate: metabolite pyruvate; for ribose-phosphate: metabolite ribose-phosphate; for sarcosine/alanine: metabolite sarcosine/alanine; for sn-glycerol-3-phosphate: metabolite sn-glycerol-3-phosphate; for succinate/methylmalonic acid: metabolite succinate/methylmalonic acid; for uridine: metabolite uridine; for xanthosine: metabolite xanthosine
# P. falciparum 3D7 = test: [3H]-hypoxanthine growth inhibition, modified HCO3- or O2; assay type: cell-based; conditions: for IC50: Plasmodium falciparum
# [2] = 3D7, read-out: P. falciparum 3D7 IC50 5% O2
# [3] = EC50 used for Factor_XEC50 in metabolomics
# [4] = 3D7, read-out: P. falciparum 3D7 IC50 HCO3- (2g/L), standard media
# [5] = 3D7, HCO3- reduced media, read-out: P. falciparum 3D7 IC50 HCO3- reduced
compound,measurement,setting,value
CCC1(C)CC(CCNCc2ccccc2O)(c2ccc(C)cc2)CCO1 (stereo not drawn) [MMV019406],EC50,P. falciparum,142 nM
same,Acetyllysine,[1],-2.519
same,N-acetyl-L-ornithine,[1],-1.511
same,N-carbamoyl-L-aspartate,[1],-2.298
same,NADPH,[1],0.4736
same,dAMP,[1],0.284
same,dCMP,[1],-0.09039
same,dTDP,[1],0.1057
same,dTMP,[1],0.004037
same,dTTP,[1],-0.4082
same,dihydroorotate,[1],-2.242
same,orotate,[1],-1.534
same,DLH,[1],-2.275
same,DLS/SDL/SID,[1],-1.841
same,PD,[1],-2.354
same,PEE,[1],-2.262
same,PVNF,[1],-2.251
same,3-phosphoglycerate,[1],-0.1564
same,ADP-D-glucose,[1],-0.3945
same,ATP,[1],-0.512
same,CDP,[1],0.05599
same,D-sedoheptulose-1/7-phosphate,[1],-0.4162
same,FAD,[1],-0.02006
same,GMP,[1],-0.3975
same,NAD+,[1],0.008417
same,NADP+,[1],-0.1427
same,Octoluse Bisphosphate,[1],-0.6015
same,Pyroglutamic acid,[1],0.2098
same,UDP-D-glucose,[1],-0.0942
same,UDP-D-glucuronate,[1],-0.3214
same,UDP-N-acetyl-glucosamine,[1],-0.03854
same,UDP,[1],-0.04555
same,UMP,[1],-0.1795
same,UTP,[1],-0.2654
same,a-ketoglutarate,[1],-0.6947
same,citrate/isocitrate,[1],0.006162
same,cytidine,[1],0.3562
same,dATP,[1],0.258
same,dGMP/AMP,[1],0.2244
same,fumarate,[1],-1.313
same,glucose-1/6-phosphate,[1],-0.1461
same,glycerate,[1],-0.1204
same,guanine,[1],-0.06557
same,guanosine,[1],-0.1693
same,hypoxanthine,[1],0.07201
same,indole,[1],-0.04528
same,inosine,[1],-0.2118
same,2_3-Diphosphoglyceric acid,[1],-0.5043
same,4-phosphopantothenate,[1],-0.1061
same,6-phospho-D-gluconate,[1],-0.2502
same,FMN,[1],-0.1097
same,IMP,[1],-0.4258
same,Pyrophosphate,[1],-0.3998
same,Sedoheptoluse bisphosphate,[1],-0.4722
same,cyclic-AMP,[1],-0.5498
same,glutathione disulfide,[1],-0.423
same,lactate,[1],-0.2201
same,myo-inositol,[1],-0.4627
same,nicotinate,[1],0.2145
same,ornithine,[1],-0.4607
same,phosphoenolpyruvate,[1],-0.0532
same,pyruvate,[1],0.03561
same,ribose-phosphate,[1],-0.5159
same,sarcosine/alanine,[1],-1.233
same,sn-glycerol-3-phosphate,[1],-0.3535
same,succinate/methylmalonic acid,[1],-0.02906
same,uridine,[1],-0.4944
same,xanthosine,[1],-0.9536
same,fold change (IC50normal/ IC50hypoxia),P. falciparum 3D7,2.3
same,IC50,"P. falciparum 3D7; 3D7, read-out: P. falciparum 3D7 IC50 1% O2",236 nM
same,IC50,P. falciparum 3D7; [2],540 nM
CN(C)CCCNc1c2ccccc2nc2ccccc12 [MMV000448],EC50,P. falciparum; [3],235 nM
same,Acetyllysine,[1],-0.6096
same,N-acetyl-L-ornithine,[1],-0.1966
same,N-carbamoyl-L-aspartate,[1],-0.218
same,NADPH,[1],1.387
same,dAMP,[1],-0.07728
same,dCMP,[1],0.0599
same,dTDP,[1],-0.2724
same,dTMP,[1],-0.1401
same,dTTP,[1],0.115
same,dihydroorotate,[1],-0.03007
same,orotate,[1],-0.5122
same,DLH,[1],-0.2186
same,DLS/SDL/SID,[1],0.06919
same,PD,[1],0.358
same,PEE,[1],0.9721
same,PVNF,[1],0.2725
same,3-phosphoglycerate,[1],-0.1099
same,ADP-D-glucose,[1],0.3085
same,ATP,[1],-0.1913
same,CDP,[1],0.02837
same,D-sedoheptulose-1/7-phosphate,[1],-0.03224
same,FAD,[1],-0.02095
same,GMP,[1],-0.2572
same,NAD+,[1],-0.1627
same,NADP+,[1],0.3266
same,Octoluse Bisphosphate,[1],-0.105
same,Pyroglutamic acid,[1],-0.3472
same,UDP-D-glucose,[1],-0.06298
same,UDP-D-glucuronate,[1],-0.1533
same,UDP-N-acetyl-glucosamine,[1],-0.07606
same,UDP,[1],0.1622
same,UMP,[1],-0.1529
same,UTP,[1],0.06952
same,a-ketoglutarate,[1],-0.5075
same,citrate/isocitrate,[1],-0.2451
same,cytidine,[1],-0.2174
same,dATP,[1],0.09204
same,dGMP/AMP,[1],-0.1732
same,fumarate,[1],0.04552
same,glucose-1/6-phosphate,[1],-0.4595
same,glycerate,[1],-0.9564
same,guanine,[1],0.005054
same,guanosine,[1],-0.4079
same,hypoxanthine,[1],-0.5072
same,indole,[1],-0.3067
same,inosine,[1],-0.6058
same,2_3-Diphosphoglyceric acid,[1],0.03945
same,4-phosphopantothenate,[1],-0.1337
same,6-phospho-D-gluconate,[1],0.01561
same,FMN,[1],-0.3847
same,IMP,[1],-0.1057
same,Pyrophosphate,[1],0.1028
same,Sedoheptoluse bisphosphate,[1],-0.05677
same,cyclic-AMP,[1],-0.3139
same,glutathione disulfide,[1],-0.02692
same,lactate,[1],-0.5186
same,myo-inositol,[1],-0.8275
same,nicotinate,[1],-0.004192
same,ornithine,[1],-0.09669
same,phosphoenolpyruvate,[1],-0.129
same,pyruvate,[1],-0.7877
same,ribose-phosphate,[1],-0.2371
same,sarcosine/alanine,[1],0.03174
same,sn-glycerol-3-phosphate,[1],-0.01243
same,succinate/methylmalonic acid,[1],-0.2869
same,uridine,[1],-0.8523
same,xanthosine,[1],-0.9083
same,fold change (IC50normal/ IC50hypoxia),P. falciparum 3D7,6.1
same,fold change (IC50reduced/IC50normal),P. falciparum 3D7,3.1
same,IC50,"P. falciparum 3D7; 3D7, read-out: P. falciparum 3D7 IC50 1% O2, 1% O2 hypoxia",59 nM
same,IC50,P. falciparum 3D7; [2],360 nM
same,IC50,P. falciparum 3D7; [4],190 nM
same,IC50,P. falciparum 3D7; [5],594 nM
Cc1cc(C)cc(Nc2cc(C)nc3nc(C(F)(F)F)nn23)c1 [MMV011259],EC50,P. falciparum; [3],85.7 nM
same,Acetyllysine,[1],-0.3746
same,N-acetyl-L-ornithine,[1],-0.3462
same,N-carbamoyl-L-aspartate,[1],3.644
same,NADPH,[1],-0.3366
same,dAMP,[1],-0.7598
same,dCMP,[1],-0.2996
same,dTDP,[1],-1.147
same,dTMP,[1],-1.715
same,dTTP,[1],-1.159
same,dihydroorotate,[1],4.069
same,orotate,[1],-1.5889
same,DLH,[1],-0.4322
same,DLS/SDL/SID,[1],-0.5334
same,PD,[1],-0.3116
same,PEE,[1],-0.461
same,PVNF,[1],-0.5009
same,3-phosphoglycerate,[1],-0.8854
same,ADP-D-glucose,[1],-0.2124
same,ATP,[1],-0.1449
same,CDP,[1],-0.8411
same,D-sedoheptulose-1/7-phosphate,[1],0.2305
same,FAD,[1],-0.12
same,GMP,[1],0.1977
same,NAD+,[1],-0.2042
same,NADP+,[1],-0.294
same,Octoluse Bisphosphate,[1],-0.4132
same,Pyroglutamic acid,[1],-0.07042
same,UDP-D-glucose,[1],-0.2997
same,UDP-D-glucuronate,[1],-0.2701
same,UDP-N-acetyl-glucosamine,[1],-0.5126
same,UDP,[1],-1.399
same,UMP,[1],-1.28
same,UTP,[1],-1.133
same,a-ketoglutarate,[1],-0.631
same,citrate/isocitrate,[1],-1.3117
same,cytidine,[1],0.1757
same,dATP,[1],0.0538
same,dGMP/AMP,[1],-0.551
same,fumarate,[1],-0.9126
same,glucose-1/6-phosphate,[1],-0.8385
same,glycerate,[1],-1.011
same,guanine,[1],-0.4133
same,guanosine,[1],-0.4081
same,hypoxanthine,[1],-0.3413
same,indole,[1],-0.1801
same,inosine,[1],-0.6501
same,2_3-Diphosphoglyceric acid,[1],-0.2003
same,4-phosphopantothenate,[1],-0.5735
same,6-phospho-D-gluconate,[1],-1.0674
same,FMN,[1],-0.3875
same,IMP,[1],-0.2517
same,Pyrophosphate,[1],-0.0001746
same,Sedoheptoluse bisphosphate,[1],-0.416
same,cyclic-AMP,[1],-0.9316
same,glutathione disulfide,[1],-0.2721
same,lactate,[1],-0.3904
same,myo-inositol,[1],-0.254
same,nicotinate,[1],-0.9132
same,ornithine,[1],-0.1147
same,phosphoenolpyruvate,[1],-0.7531
same,pyruvate,[1],-0.8729
same,ribose-phosphate,[1],-0.4441
same,sarcosine/alanine,[1],-0.2762
same,sn-glycerol-3-phosphate,[1],-0.2294
same,succinate/methylmalonic acid,[1],-0.3522
same,uridine,[1],-1.619
same,xanthosine,[1],-0.6868
same,fold change (IC50reduced/IC50normal),P. falciparum 3D7,2.2
same,IC50,P. falciparum 3D7; [4],59 nM
same,IC50,P. falciparum 3D7; [5],132 nM
